Assay results as given in ChEMBL document CHEMBL4673365, “Design, synthesis and biological evaluation of novel 4-(pyrrolo[2,3-d]pyrimidine-4-yloxy)benzamide derivatives as potential antitumor agents” (Bioorg Med Chem Lett, 2021).

Tests used:
[1] = tested on: MCF7; experiment: Cytotoxicity against human MCF7 cells after 72 hrs by MTT assay; assay type: functional, cell-based
[2] = tested on: A549; experiment: Cytotoxicity against human A549 cells after 72 hrs by MTT assay; assay type: functional, cell-based
[3] = tested on: HeLa; experiment: Cytotoxicity against human HeLa cells after 72 hrs by MTT assay; assay type: functional, cell-based
[4] = tested on: A549; experiment: Cytotoxicity against human A549 cells assessed as reduction in cell survival after 72 hrs by MTT assay; assay type: functional, cell-based; conditions: dose 0.137-100 µM
[5] = tested on: A549; experiment: Induction of cell cycle arrest in human A549 cells assessed as accumulation at S phase at 5 uM incubated for 24 hrs by propidium iodide staining based flow cytometry (reference value: 27.97 %); assay type: functional
[6] = tested on: A549; experiment: Induction of cell cycle arrest in human A549 cells assessed as accumulation at G2 phase at 5 uM incubated for 24 hrs by propidium iodide staining based flow cytometry (reference value: 7.56 %); assay type: functional
[7] = tested on: A549; experiment: Cytotoxicity against human A549 cells assessed as inhibition rate at 100 uM after 72 hrs by MTT assay relative to control; assay type: functional
[8] = tested on: A549; experiment: Cytotoxicity against human A549 cells assessed as inhibition rate at 33.33 uM after 72 hrs by MTT assay relative to control; assay type: functional
[9] = tested on: A549; experiment: Induction of cell cycle arrest in human A549 cells assessed as accumulation at G0/G1 phase at 5 uM incubated for 24 hrs by propidium iodide staining based flow cytometry (reference value: 64.47 %); assay type: functional
[10] = tested on: A549; experiment: Cytotoxicity against human A549 cells assessed as inhibition rate at 3.704 uM after 72 hrs by MTT assay relative to control; assay type: functional
[11] = tested on: A549; experiment: Cytotoxicity against human A549 cells assessed as inhibition rate at 11.11 uM after 72 hrs by MTT assay relative to control; assay type: functional
[12] = tested on: A549; experiment: Cytotoxicity against human A549 cells assessed as inhibition rate at 1.234 uM after 72 hrs by MTT assay relative to control; assay type: functional
[13] = tested on: A549; experiment: Cytotoxicity against human A549 cells assessed as inhibition rate at 0.411 uM after 72 hrs by MTT assay relative to control; assay type: functional
[14] = target: Hepatocyte growth factor receptor (Homo sapiens, UniProt P08581); experiment: Inhibition of c-Met (unknown origin) by mobility shift assay
Chain of Hepatocyte growth factor receptor (P08581 whole entry): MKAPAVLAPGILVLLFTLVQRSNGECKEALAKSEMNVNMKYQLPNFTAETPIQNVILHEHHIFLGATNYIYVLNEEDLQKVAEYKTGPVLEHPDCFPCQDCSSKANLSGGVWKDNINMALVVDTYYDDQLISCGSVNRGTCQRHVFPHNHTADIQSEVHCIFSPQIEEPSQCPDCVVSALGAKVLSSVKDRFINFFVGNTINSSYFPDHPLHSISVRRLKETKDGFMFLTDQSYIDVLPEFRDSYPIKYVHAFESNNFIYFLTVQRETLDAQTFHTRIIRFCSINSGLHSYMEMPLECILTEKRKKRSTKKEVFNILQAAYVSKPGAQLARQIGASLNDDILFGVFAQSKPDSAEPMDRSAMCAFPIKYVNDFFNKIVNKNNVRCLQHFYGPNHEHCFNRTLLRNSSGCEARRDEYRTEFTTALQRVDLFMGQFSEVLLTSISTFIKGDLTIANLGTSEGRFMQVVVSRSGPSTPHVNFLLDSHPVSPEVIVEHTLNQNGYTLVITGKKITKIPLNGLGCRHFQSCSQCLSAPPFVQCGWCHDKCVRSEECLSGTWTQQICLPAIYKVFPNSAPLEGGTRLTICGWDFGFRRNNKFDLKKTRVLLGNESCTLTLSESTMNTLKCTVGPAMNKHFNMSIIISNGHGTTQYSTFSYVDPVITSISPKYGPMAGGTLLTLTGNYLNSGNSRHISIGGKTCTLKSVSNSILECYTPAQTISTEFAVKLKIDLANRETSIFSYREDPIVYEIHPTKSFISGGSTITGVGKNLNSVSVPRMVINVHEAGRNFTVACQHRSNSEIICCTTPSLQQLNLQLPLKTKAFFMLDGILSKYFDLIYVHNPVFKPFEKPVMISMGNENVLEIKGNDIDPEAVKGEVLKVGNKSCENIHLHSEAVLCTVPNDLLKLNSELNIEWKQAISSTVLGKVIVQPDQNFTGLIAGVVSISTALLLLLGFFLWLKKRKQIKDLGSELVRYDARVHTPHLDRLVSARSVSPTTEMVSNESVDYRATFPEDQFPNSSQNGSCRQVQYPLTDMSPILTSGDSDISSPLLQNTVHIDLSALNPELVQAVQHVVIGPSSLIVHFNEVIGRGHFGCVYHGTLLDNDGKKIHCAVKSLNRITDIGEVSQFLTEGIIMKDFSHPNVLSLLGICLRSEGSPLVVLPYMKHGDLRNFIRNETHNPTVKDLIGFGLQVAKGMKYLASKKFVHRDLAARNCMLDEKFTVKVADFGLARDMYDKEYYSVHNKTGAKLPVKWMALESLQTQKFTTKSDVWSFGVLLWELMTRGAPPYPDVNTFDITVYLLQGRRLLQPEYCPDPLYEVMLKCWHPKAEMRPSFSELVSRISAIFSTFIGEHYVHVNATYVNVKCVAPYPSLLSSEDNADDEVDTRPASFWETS

[15] = tested on: A549; experiment: Cytotoxicity against human A549 cells assessed as inhibition rate at 0.137 uM after 72 hrs by MTT assay relative to control; assay type: functional
[16] = Homo sapiens, MCF7, 72 h, read-out: IC50
[17] = Homo sapiens, A549, 72 h, read-out: IC50

Row | Compound | IC50 [1, 16] [µM] | IC50 [2, 17] [µM] | IC50 [3] [µM] | further results
1 | O=C(Nc1ccc(Oc2ncnc3[nH]ccc23)c(F)c1)c1cc2cccnc2n(-c2ccc(C(F)(F)F)cc2Cl)c1=O | 214 | 283 | 96.8 | 
2 | Cn1ccc2c(Oc3ccc(NC(=O)c4cc5cccnc5n(-c5ccc(Cl)cc5)c4=O)cc3)ncnc21 | 95 | 75.5 | 49.9 | 
3 | Cn1ccc2c(Oc3ccc(NC(=O)c4cc5cccnc5n(-c5ccccc5)c4=O)cc3F)ncnc21 | 73.4 | 63.2 | 51.8 | 
4 | O=C(Nc1ccc(Oc2ncnc3[nH]ccc23)c(F)c1)c1cc2cccnc2n(-c2ccc(F)cc2)c1=O | 9.23 | 5.29 | 3.72 | Activity [4]: Dose-dependent effect; Activity [5]: 21.11%; Activity [6]: 5.43%; inhibition at 100 µM [7]: 90.5%; inhibition at 33.33 µM [8]: 80.6%; Activity [9]: 73.46%; inhibition at 3.704 µM [10]: 42.3%; inhibition at 11.11 µM [11]: 54.5%; inhibition at 1.234 µM [12]: 23.4%; inhibition at 0.411 µM [13]: 18.1%; IC50 [14]: 0.612 µM; inhibition at 0.137 µM [15]: 12.7%
5 | Cn1ccc2c(Oc3ccc(NC(=O)c4cc5cccnc5n(-c5ccc(Br)cc5)c4=O)cc3)ncnc21 | 79.4 | 52.2 | 43.8 | 
6 | Cn1ccc2c(Oc3ccc(NC(=O)c4cc5cccnc5n(-c5ccc(Cl)cc5)c4=O)cc3F)ncnc21 | 75 | 55.5 | 43.9 | IC50 [14]: 3.79 µM
7 | Cn1ccc2c(Oc3ccc(NC(=O)c4cc5cccnc5n(-c5ccc(Br)cc5)c4=O)cc3F)ncnc21 | 59.4 | 42.2 | 33.8 | 
8 | Cn1ccc2c(Oc3ccc(NC(=O)c4cc5cccnc5n(-c5ccc(F)cc5)c4=O)cc3F)ncnc21 | 11.9 | 7.32 | 4.25 | IC50 [14]: 0.701 µM
9 | Cn1ccc2c(Oc3ccc(NC(=O)c4cc5cccnc5n(-c5ccc(C(F)(F)F)c(Cl)c5)c4=O)cc3F)ncnc21 |  | 320 | 156 | IC50 ([1]; mcf7): Not Active
10 | O=C(Nc1ccc(Oc2ncnc3[nH]ccc23)c(F)c1)c1cc2cccnc2n(-c2ccc(Br)cc2)c1=O | 27 | 27.3 | 19.9 | 
11 | O=C(Nc1ccc(Oc2ncnc3[nH]ccc23)c(F)c1)c1cc2cccnc2n(-c2ccccc2)c1=O | 45 | 45.5 | 36.9 | 
12 | Cn1ccc2c(Oc3ccc(NC(=O)c4cc5cccnc5n(-c5ccccc5)c4=O)cc3)ncnc21 | 88.4 | 66.2 | 59.8 | 
13 | Cn1ccc2c(Oc3ccc(NC(=O)c4cc5cccnc5n(-c5ccc(C(F)(F)F)c(Cl)c5)c4=O)cc3)ncnc21 |  |  | 289 | IC50 ([1]; mcf7): Not Active; IC50 ([2]; a549): Not Active
14 | COc1ccc(-n2c(=O)c(C(=O)Nc3ccc(Oc4ncnc5c4ccn5C)cc3)cc3cccnc32)cc1 | 105 | 83.2 | 65.8 | 
15 | Cn1ccc2c(Oc3ccc(NC(=O)c4cc5cccnc5n(-c5ccc(C(F)(F)F)cc5Cl)c4=O)cc3F)ncnc21 |  |  | 170 | IC50 ([1]; mcf7): Not Active; IC50 ([2]; a549): Not Active
16 | O=C(Nc1ccc(Oc2ncnc3[nH]ccc23)c(F)c1)c1cc2cccnc2n(-c2ccc(Br)cc2F)c1=O | 102 | 218 | 87.8 | 
17 | CN1CCN(C2CCN(C(=O)Nc3cc(Oc4ccc(NC(=O)C5(C(=O)Nc6ccc(F)cc6)CC5)c(F)c4)ccn3)CC2)CC1 [GOLVATINIB] | 15.4 | 7.7 | 4.23 | Activity [5]: 19.82%; Activity [6]: 6.53%; inhibition at 100 µM [7]: 85.1%; inhibition at 33.33 µM [8]: 76.5%; Activity [9]: 73.65%; inhibition at 3.704 µM [10]: 35.3%; inhibition at 11.11 µM [11]: 47.5%; inhibition at 1.234 µM [12]: 21.4%; inhibition at 0.411 µM [13]: 17.2%; inhibition at 0.137 µM [15]: 13.7%
18 | O=C(Nc1ccc(Oc2ncnc3[nH]ccc23)c(F)c1)c1cc2cccnc2n(-c2ccc(Cl)cc2)c1=O | 45 | 35.5 | 23.9 | IC50 [14]: 1.18 µM
19 | Cn1ccc2c(Oc3ccc(NC(=O)c4cc5cccnc5n(-c5ccc(C(F)(F)F)cc5Cl)c4=O)cc3)ncnc21 |  | 364 | 174 | IC50 ([1]; mcf7): Not Active
